Structures can show the parent of a compound that is named as a salt.
Molecular target: T1, GPIIb/IIIa (Homo sapiens, UniProt P05106+P08514)
T1 construct: Purification of GPIIb/IIIa from HEL cells; endogenous in cells; host or cells: HEL cells (HEL 92.1.7, ATCC TIB180); endogenous complex solubilized with Triton X-100 and purified in house
Experiment: Inhibitory activity against binding of GPIIb/IIIa and fibrinogen
Details: Table 2, read-out: GPIIb/IIIa Fibrinogen Binding Inhibitory Activity; for inhibition at 10 µM: 10^-5 M; for inhibition at 1 µM: 10^-6 M
Experimental: Test Example 1: Inhibitory activity against binding of GPIIb/IIIa and fibrinogen
(1) Cultivation of human erythroleukemia-derived cell line (hereinafter referred to as HEL cells)
HEL cells (HEl92.1.7; ATCC No. TIB180) were purchased from ATCC (Rockville, Md., U.S.A.). The medium was RPMI medium (GIBCO Laboratories, Grand Island, N..Y, U.S.A.) containing 40 mM N-2-hydroxyethylpiperazine-N'-2-ethanesulfonic acid (hereinafter referred to as HEPES) (pH 7.0), 0.2% NaHCO3, 100 μg/ml kanamycin and 10% FCS. The cells were cultured in the presence of 5% CO2 at 37° C., with the medium replaced with a fresh medium to obtain a 4- to 5-fold dilution at intervals of 3 to 4 days.
(2) Purification of GPIIb/IIIa from HEL cells
GPIIb/IIIa was purified by a modification of the method of L. A. Fitzgerald et al. [J. Biol. Chem., 262, 3936 (1987)] as follows: All purification was conducted at room temperature, unless otherwise stated. At 7 days of cultivation, cells were collected from the HEL cell culture broth (cell suspension) by centrifugation (1,000 ×g, 10 minutes, 4° C.). After washing with 20 mM Tris-HCl (pH 7.5) containing 1 mM EDTA and 150 mM NaCl, the cells were suspended in a solubilizing buffer (20 mM Tris-HCl, 150 mM NaCl, 1% Triton X-100, 1 mM MgCl2, 1 mM CaCl2, 0.1 mM (p-amidinophenyl)methanesulfonyl fluoride (hereinafter referred to as APMSF), 10 nM leupeptin, 0.02% NaN3, pH 7.4), followed by gentle stirring at 4° C. for 30 minutes, to solubilize the GPIIb/IIIa. The suspension was centrifuged (100,000 ×g, 1 hour) at 4° C., and the cell debris removed, to yield a cell extract. The cell extract was passed through a Heparin-Sepharose CL-6B column (Pharmacia LKB) and a DEAE-Toyopearl 650M column (Tosoh), both previously equilibrated with a column buffer (20 mM Tris-HCl, 150 mM NaCl, 0.1% Triton X-100, 1 mM MgCl2, 1 mM CaCl2, 0.1 mM APMSF, 1 nM leupeptin, 0.05% NaN3, pH 7.4). The effluent was applied to a ConA-Sepharose column (Pharmacia LKB), previously equilibrated with the same column buffer as above, to adsorb the GPIIb/IIIa, followed by elution with the same column buffer but containing 0.5M methyl α-D-mannopyranoside. The eluted fraction was concentrated at 4° C. using an ultrafiltration apparatus (Amicon Corporation the fraction's molecular weight of 10,000), after which it was subjected to gel filtration through a Sephacryl S-300 column (Pharmacia LKB), previously equilibrated with the same column buffer, to yield a purified standard sample.
(3) Biotinization of human fibrinogen
Conducted by the method of I. F. Charo [I. F. Charo et al., J. Biol. Chem., 266, 1415 (1991)].
Human fibrinogen (Kabi Vitrum AB) was dissolved in PBS to 5 mg/ml and then dialyzed at 4° C. against 0.1M carbonate buffer (pH 8.2) containing 0.1M NaCl. After dialysis, insoluble substances were removed by centrifugation (100,000 ×g, 30 minutes), and the dialyzate was diluted to 1 mg/ml with the same buffer. To this dilution, sulfo-N-hydroxysuccinimidebiotin (Pierce Chemical Co.) was added to a final concentration of 0.2 mg/ml, followed by gentle mixing at room temperature for 30 minutes, to biotinize the fibrinogen. After completion of the reaction, the mixture was dialyzed against 0.05M Tris-HCl buffer (pH 7.4) containing 0.1M NaCl and 0.05% NaN3.
(4) Determination of inhibitory activity against fibrinogen binding
Conducted by a modification of the method of I. F. Charo [I. F. Charo et al., J. Biol. Chem., 266, 1415 (1991)] as follows: The purified GPIIb/IIIa was diluted to 1 μg/ml with buffer A (20 mM Tris-HCl, 150 mM NaCl, 1 mM CaCl2, 0.02% NaN3, pH 7.4). A 100 μl aliquot of this dilution was dispensed to a 96-well microplate (Maxisorp, produced by Nunc), and the plate kept standing at 4° C., to adsorb the GPIIb/IIIa to the microplate. Next, 150 μl of buffer B (35 mg/ml BSA, 50 mM Tris-HCl, 100 mM NaCl, 2 mM CaCl2, 0.02% NaN3, pH 7.4) was added, followed by 2 hours of blocking at 30° C. […]

T1 sequence (P08514 32-887 limits assumed): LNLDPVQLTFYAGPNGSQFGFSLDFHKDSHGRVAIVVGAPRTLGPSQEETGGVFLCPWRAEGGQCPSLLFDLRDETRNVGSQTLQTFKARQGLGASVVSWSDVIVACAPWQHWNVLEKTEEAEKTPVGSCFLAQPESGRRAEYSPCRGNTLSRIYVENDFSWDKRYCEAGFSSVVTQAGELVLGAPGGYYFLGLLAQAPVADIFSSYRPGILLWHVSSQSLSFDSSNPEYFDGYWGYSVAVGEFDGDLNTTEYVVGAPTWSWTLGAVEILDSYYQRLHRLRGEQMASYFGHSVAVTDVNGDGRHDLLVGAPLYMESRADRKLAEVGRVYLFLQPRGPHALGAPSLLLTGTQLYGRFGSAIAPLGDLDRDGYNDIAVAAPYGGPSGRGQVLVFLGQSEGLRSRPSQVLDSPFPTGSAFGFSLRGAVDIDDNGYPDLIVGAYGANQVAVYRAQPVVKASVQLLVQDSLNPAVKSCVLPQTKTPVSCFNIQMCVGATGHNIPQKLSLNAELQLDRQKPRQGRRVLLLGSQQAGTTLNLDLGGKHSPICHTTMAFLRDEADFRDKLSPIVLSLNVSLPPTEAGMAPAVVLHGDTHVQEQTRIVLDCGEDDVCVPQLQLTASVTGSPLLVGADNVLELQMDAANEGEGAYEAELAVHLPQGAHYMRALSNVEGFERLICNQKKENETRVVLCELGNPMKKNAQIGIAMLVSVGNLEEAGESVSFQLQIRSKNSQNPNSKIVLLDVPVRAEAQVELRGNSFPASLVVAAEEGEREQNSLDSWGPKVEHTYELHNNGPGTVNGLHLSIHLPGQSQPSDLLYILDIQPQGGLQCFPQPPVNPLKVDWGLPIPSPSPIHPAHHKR
T1 sequence (P08514 891-1039 limits assumed): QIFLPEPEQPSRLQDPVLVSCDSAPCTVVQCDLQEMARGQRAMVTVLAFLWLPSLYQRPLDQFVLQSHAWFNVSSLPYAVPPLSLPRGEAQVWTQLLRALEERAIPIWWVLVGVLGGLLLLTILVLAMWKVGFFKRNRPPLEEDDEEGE
T1 sequence (P05106 27-788): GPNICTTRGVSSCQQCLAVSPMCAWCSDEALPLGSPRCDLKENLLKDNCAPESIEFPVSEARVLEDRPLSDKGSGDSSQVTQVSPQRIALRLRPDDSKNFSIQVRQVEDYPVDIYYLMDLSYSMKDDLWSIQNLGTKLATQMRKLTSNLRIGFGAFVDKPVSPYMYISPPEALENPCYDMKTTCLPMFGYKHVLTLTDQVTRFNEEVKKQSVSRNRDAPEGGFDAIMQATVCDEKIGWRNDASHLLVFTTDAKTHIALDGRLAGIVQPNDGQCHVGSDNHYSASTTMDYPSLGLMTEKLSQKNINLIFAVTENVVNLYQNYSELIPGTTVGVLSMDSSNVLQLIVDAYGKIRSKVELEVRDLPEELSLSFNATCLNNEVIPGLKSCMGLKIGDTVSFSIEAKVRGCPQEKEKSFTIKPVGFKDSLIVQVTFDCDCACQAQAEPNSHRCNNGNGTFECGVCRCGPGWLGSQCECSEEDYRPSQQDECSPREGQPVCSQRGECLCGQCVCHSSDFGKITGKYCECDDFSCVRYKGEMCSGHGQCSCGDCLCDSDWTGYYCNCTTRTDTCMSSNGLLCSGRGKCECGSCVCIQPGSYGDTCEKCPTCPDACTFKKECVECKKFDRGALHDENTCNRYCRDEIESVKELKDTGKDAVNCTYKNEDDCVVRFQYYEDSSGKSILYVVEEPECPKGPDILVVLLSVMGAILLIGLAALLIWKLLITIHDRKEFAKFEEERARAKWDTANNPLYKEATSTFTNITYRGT

Row | SMILES | inhibition at 10 µM [%] | inhibition at 1 µM [%]
1 | O=C(O)c1cn(C2CC2)c2c(F)c(N3CCn4ccnc4C3)c(F)c(F)c2c1=O [Compound 40] | 50.6 | 34.7
2 | NC(=O)CCCNc1c(F)cc2c(=O)c(C(=O)O)cn(C3CC3)c2c1F [Compound 41] | 58.8 | 17.9
3 | CN1CCN(C(=O)CCCNc2c(F)cc3c(=O)c(C(=O)O)cn(C4CC4)c3c2F)CC1 [Compound 42] | 67.3 | 38.6
4 | C=CCN(CC=C)c1c(F)cc2c(=O)c(C(=O)O)cn(C3CC3)c2c1F [Compound 43] | 52.1 | 20.2
5 | Nc1c(F)c(N2CCN3CCC[C@@H]3C2)c(F)c2c1c(=O)c(C(=O)O)cn2C1CC1 [Compound 44] | 61.6 | 33.4
6 | COn1cc(C(=O)O)c(=O)c2cc(F)c(N3CCn4ccnc4C3)c(F)c21 [Compound 45] | 59.9 | 31.4
7 | O=C(O)c1cn(C2CCc3ccccc32)c2c(F)c(N3CCNCC3)c(F)cc2c1=O (centres unmarked) [Compound 46, 6,8-Difluoro-1-(indan-1-yl)-7-(piperazin-1-yl) 1,4-dihydro-4-oxoquinoline-3-carboxylic acid] | – | 41.6
8 | NC(=O)OC1CCN(c2c(F)cc3c(=O)c(C(=O)O)cn(-c4ccc(F)cc4F)c3c2F)C1 (centres unmarked) [Compound 47] | – | 43.1
9 | NCc1nc2c(s1)CCN(c1c(F)cc3c(=O)c(C(=O)O)cn(C4CC4)c3c1F)C2 [Compound 48] | – | 57.7
10 | NC(=O)c1ccc(-n2cc(C(=O)O)c(=O)c3cc(F)c(N4CCNCC4)c(F)c32)cc1 [Compound 49] | – | 30.5
11 | CN1CCN(c2c(F)cc3c(=O)c(C(=O)O)cn(Cc4nccs4)c3c2F)CC1 [Compound 50, 6,8-Difluoro-7-(4-methylpiperazin-1-yl)-1-(thiazol-2-yl)methyl-1,4-dihydro-4-oxoquinoline-3-carboxylic acid hydrochloride] | 99.8 | 92.3
12 | O=C(O)c1cn(Cc2nccs2)c2c(F)c(N3CCn4ccnc4C3)c(F)cc2c1=O [Compound 51] | 97.5 | 88.1
13 | O=C(O)c1cn2c3c(c(N4CCn5ccnc5C4)c(F)cc3c1=O)OCC2 [Compound 52, 9-Fluoro-10-(5,6,7,8-tetrahydroimidazo[1,2-a]pyrazin-7-yl)-2,3-dihydro-7-oxo-7H-pyrido[1,2,3-a][1,4]benzoxazine-6-carboxylic acid] | 90.8 | 55
14 | CN1CCN(c2c(F)cc3c(=O)c(C(=O)O)cn4c3c2N(C)CC4)CC1 [Compound 53, 9-Fluoro-1-methyl-10-(4-methylpiperazin-1-yl) 7-oxo-2,3-dihydro-1H,7H-pyrido[1,2,3-de]quinoxaline-6-carboxylic acid] | 89.5 | 47.6
15 | O=C(O)c1cn(-c2ccncc2)c2c(F)c(N3CCNCC3)c(F)cc2c1=O [Compound 54] | 50.1 | 21
16 | O=C(O)c1cn(Cc2ccccc2)c2c(F)c(N3CCNCC3)c(F)cc2c1=O [Compound 55, 1-Benzyl-6,8-difluoro-7-(1-piperazinyl)-1,4-dihydro-4-oxoquinoline-3-carboxylic acid] | 100 | 93.8
17 | O=C(O)c1cn(CCc2ccccc2)c2c(F)c(N3CCNCC3)c(F)cc2c1=O [Compound 56] | 88.2 | 72.2

Row | SMILES | inhibition at 10 µM [%] | inhibition at 1 µM [%]
18 | O=C(O)c1cn(Cc2nccs2)c2cc(N3CCN(c4ccncc4)CC3)ccc2c1=O [Compound 57, 7-[4-(4-Pyridyl)piperazine-1-yl]-1-(2-thiazolylmethyl)-1,4-dihydro-4-oxoquinoline-3-carboxylic acid] | 100 | 100
19 | O=C(O)c1cn(Cc2nccs2)c2cc(N3CCC(C4CCNCC4)CC3)ccc2c1=O [Compound 58, 7-[4-(4-Piperidinyl)piperidin-1-yl]-1-(2-thiazolylmethyl)-1,4-dihydro-4-oxoquinoline-3-carboxylic acid] | 100 | 100
20 | O=C(O)c1cn(Cc2nccs2)c2c(F)c(N3CCNCC3)c(F)cc2c1=O [Compound 59, 6,8-Difluoro-7-(1-piperazinyl)-1-(2-thiazolylmethyl)-1,4-dihydro-4-oxoquinoline-3-carboxylic acid hydrochloride] | 100 | 100
21 | CN(C)CCCNc1c(F)cc2c(=O)c(C(=O)O)cn(Cc3nccs3)c2c1F [Compound 60] | 100 | 95
22 | O=C(O)c1cn(Cc2nccs2)c2c(F)c(N3CCCNCC3)c(F)cc2c1=O [Compound 61] | 100 | 97.1
23 | CN(C)CCOC1CCN(c2c(F)cc3c(=O)c(C(=O)O)cn(Cc4nccs4)c3c2F)C1 (centres unmarked) [Compound 62] | 100 | 100
24 | CN1CCN(C(=O)OC2CCN(c3c(F)cc4c(=O)c(C(=O)O)cn(Cc5nccs5)c4c3F)C2)CC1 (centres unmarked) [Compound 63] | 100 | 100
25 | O=C(O)c1cn(Cc2nccs2)c2c(F)c(N3CCN(c4ccncc4)CC3)c(F)cc2c1=O [Compound 64] | 100 | 100
26 | O=C(O)c1cn(Cc2nccs2)c2c(F)c(N3CCN(c4ccccn4)CC3)c(F)cc2c1=O [Compound 65] | 100 | 81.2
27 | O=C(O)c1cn(Cc2nccs2)c2c(F)c(N3CCN(c4cccnc4)CC3)c(F)cc2c1=O [Compound 66] | 100 | 86.7
28 | O=C(O)c1cn(Cc2nccs2)c2c(F)c(N3CCN(c4cc(N5CCCC5)nc(N5CCCC5)n4)CC3)c(F)cc2c1=O [Compound 67] | 58.6 | 76.4
29 | O=C(O)c1cn(Cc2nccs2)c2c(F)c(N3CCC(C4CCNCC4)CC3)c(F)cc2c1=O [Compound 68] | 100 | 100
30 | CC(=O)NCCN1CCN(c2c(F)cc3c(=O)c(C(=O)O)cn(Cc4nccs4)c3c2F)CC1 [Compound 69] | 100 | 92.2
31 | NCCN1CCN(c2c(F)cc3c(=O)c(C(=O)O)cn(Cc4nccs4)c3c2F)CC1 [Compound 70] | 100 | 95.9
32 | O=C(O)c1cn(Cc2nccs2)c2c(F)c(N3CCN(CCO)CC3)c(F)cc2c1=O [Compound 71] | 100 | 100
33 | O=C(O)c1cn(Cc2cscn2)c2c(F)c(N3CCNCC3)c(F)cc2c1=O [Compound 72, 6,8-Difluoro-7-(1-piperazinyl)-1-(4-thiazolylmethyl)-1,4-dihydro-4-oxoquinoline-3-carboxylic acid hydrochloride] | 100 | 88.6

Source: patent US5519024A, “Quinolonecarboxylic acid derivatives and their use” (Takeda Chemical Industries, Ltd., priority 1993, dated 1996)
